Here are results for seven compounds from article PMC8954792 (Viruses, 2022).

The test system of this assay is authentic SARS-CoV-2 Delta (B.1.617.2) variant. Nature of the assay: microbe, parasite or virus in culture. Type of assay: cell-based. The settings on record: Severe acute respiratory syndrome coronavirus 2, Vero C1008.
In turn, `C#CCOc1ccc(CCN2C(=O)/C(=C/c3ccc(-c4ccc(Cl)c(C(=O)O)c4)o3)SC2=S)cc1` [FD007] returned an IC50 of 52.5 nM. That is a double-digit nanomolar value.
As for `C#CCOCCOc1ccc(CCN2C(=O)/C(=C/c3ccc(-c4ccc(Cl)c(C(=O)O)c4)o3)SC2=S)cc1` [FD008], the figure is 95.9 nM; as for `CCOc1ccc(CCN2C(=O)/C(=C/c3ccc(-c4ccc(Cl)c(C(=O)O)c4)o3)SC2=S)cc1` [FD009], 13.5 nM.
The value for `O=C(O)c1cc(-c2ccc(/C=C3\SC(=S)N(CCc4ccc(OCc5ccc(F)cc5)cc4)C3=O)o2)ccc1Cl` [FD010] was 26.3 nM.
The value for `O=C(O)c1cc(-c2ccc(/C=C3\SC(=S)N(CCc4ccc(OCC5CC5)cc4)C3=O)o2)ccc1Cl` [FD012] was 126 nM; that for `O=C(O)c1cc(-c2ccc(/C=C3\SC(=S)N(CCc4ccc(OCc5ccsc5)cc4)C3=O)o2)ccc1Cl` [FD013] was 60.3 nM; that for `CCC(CC)COC(=O)[C@H](C)N[P@](=O)(OC[C@H]1O[C@@](C#N)(c2ccc3c(N)ncnn23)[C@H](O)[C@@H]1O)Oc1ccccc1` [Remdesivir, remdesivir, reference compound] was 18.6 nM.
